# Source: PubChem BioAssay AID1982 (Sanford-Burnham Center for Chemical Genomics, 2009)
# Calls of active or inactive are those of the source. No rule for the calls is given here.
# Experiments:
# Experiment in all cases: kinase panel binding selectivity, selectivity assay, biochemical, KINOMEscan (AID 1982)
# MYLK = details: KINOMEscan 353-kinase binding panel, qPCR, at 10 µM, active compounds read low
# [1] = biological target: Tyrosine-protein kinase FRK (Homo sapiens) (UniProt P42685); details: KINOMEscan 353-kinase binding panel, qPCR, at 10 µM, active compounds read low
# [2] = biological target: Macrophage-stimulating protein receptor (Homo sapiens) (UniProt Q04912); details: KINOMEscan 353-kinase binding panel, qPCR; MST1R; at 10 µM; active compounds read low
# Macrophage-stimulating protein receptor (Homo sapiens), sequence (Q04912 whole entry, looked up): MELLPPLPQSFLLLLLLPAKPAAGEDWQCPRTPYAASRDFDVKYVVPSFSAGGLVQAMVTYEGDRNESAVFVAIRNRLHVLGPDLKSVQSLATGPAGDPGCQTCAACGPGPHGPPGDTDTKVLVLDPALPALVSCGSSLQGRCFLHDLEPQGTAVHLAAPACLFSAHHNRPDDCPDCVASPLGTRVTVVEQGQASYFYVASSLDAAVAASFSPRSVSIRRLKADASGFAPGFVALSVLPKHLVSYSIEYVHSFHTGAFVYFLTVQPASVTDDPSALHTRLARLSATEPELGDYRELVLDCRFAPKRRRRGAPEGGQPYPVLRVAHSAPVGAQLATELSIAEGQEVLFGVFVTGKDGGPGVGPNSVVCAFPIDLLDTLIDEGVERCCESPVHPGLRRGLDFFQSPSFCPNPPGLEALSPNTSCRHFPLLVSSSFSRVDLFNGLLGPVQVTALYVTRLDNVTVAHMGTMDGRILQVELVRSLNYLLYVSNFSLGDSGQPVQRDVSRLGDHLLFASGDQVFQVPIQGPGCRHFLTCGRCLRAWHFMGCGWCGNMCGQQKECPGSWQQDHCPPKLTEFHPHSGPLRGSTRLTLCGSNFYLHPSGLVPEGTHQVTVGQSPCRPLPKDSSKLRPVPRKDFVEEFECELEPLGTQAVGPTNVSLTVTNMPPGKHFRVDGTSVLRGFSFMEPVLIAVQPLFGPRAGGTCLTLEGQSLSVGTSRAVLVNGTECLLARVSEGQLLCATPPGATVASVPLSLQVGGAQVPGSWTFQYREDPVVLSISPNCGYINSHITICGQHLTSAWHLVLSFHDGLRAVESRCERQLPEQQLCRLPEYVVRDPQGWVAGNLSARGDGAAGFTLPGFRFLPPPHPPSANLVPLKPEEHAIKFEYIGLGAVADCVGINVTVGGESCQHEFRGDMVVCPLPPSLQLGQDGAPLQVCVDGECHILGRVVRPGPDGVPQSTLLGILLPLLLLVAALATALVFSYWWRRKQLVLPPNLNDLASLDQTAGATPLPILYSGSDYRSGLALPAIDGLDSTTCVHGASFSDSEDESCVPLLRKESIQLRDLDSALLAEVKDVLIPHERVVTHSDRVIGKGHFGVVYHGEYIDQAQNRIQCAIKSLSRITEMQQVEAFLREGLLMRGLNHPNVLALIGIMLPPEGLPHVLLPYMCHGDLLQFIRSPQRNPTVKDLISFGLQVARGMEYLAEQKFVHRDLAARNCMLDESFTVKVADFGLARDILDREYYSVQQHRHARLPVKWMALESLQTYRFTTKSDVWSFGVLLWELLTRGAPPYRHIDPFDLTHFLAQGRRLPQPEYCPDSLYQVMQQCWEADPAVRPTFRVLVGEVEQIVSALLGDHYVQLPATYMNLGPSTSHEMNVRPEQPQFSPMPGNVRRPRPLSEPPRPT
# PRKR = details: KINOMEscan 353-kinase binding panel, qPCR, at 10 µM, active compounds read low
# [3] = biological target: Wee1-like protein kinase (Homo sapiens) (UniProt P30291); details: KINOMEscan 353-kinase binding panel, qPCR, at 10 µM, active compounds read low
# TLK1 = details: KINOMEscan 353-kinase binding panel, qPCR, at 10 µM, active compounds read low
# ULK1 = details: KINOMEscan 353-kinase binding panel, qPCR, at 10 µM, active compounds read low
# [4] = biological target: Serine/threonine-protein kinase pim-1 (Homo sapiens) (UniProt P11309); details: KINOMEscan 353-kinase binding panel, qPCR; PIM1; at 10 µM; active compounds read low
# Serine/threonine-protein kinase pim-1 (Homo sapiens), sequence (P11309 whole entry, looked up): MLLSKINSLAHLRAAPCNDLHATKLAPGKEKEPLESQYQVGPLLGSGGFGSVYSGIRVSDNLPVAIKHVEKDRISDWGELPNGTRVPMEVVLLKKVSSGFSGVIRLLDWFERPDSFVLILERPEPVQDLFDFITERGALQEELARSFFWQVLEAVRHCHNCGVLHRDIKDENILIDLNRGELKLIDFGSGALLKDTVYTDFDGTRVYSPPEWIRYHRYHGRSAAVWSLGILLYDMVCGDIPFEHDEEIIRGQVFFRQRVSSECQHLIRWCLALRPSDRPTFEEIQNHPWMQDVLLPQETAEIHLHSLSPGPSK
# LATS1 = details: KINOMEscan 353-kinase binding panel, qPCR, at 10 µM, active compounds read low
# [5] = biological target: Vascular endothelial growth factor receptor 2 (Homo sapiens) (UniProt P35968); details: KINOMEscan 353-kinase binding panel, qPCR; VEGFR2; at 10 µM; active compounds read low
# [6] = biological target: Ribosomal protein S6 kinase alpha-4 (Homo sapiens) (UniProt O75676); details: KINOMEscan 353-kinase binding panel, qPCR, at 10 µM, active compounds read low
# Ribosomal protein S6 kinase alpha-4 (Homo sapiens), sequence (O75676 whole entry, looked up, the tested form may be a part): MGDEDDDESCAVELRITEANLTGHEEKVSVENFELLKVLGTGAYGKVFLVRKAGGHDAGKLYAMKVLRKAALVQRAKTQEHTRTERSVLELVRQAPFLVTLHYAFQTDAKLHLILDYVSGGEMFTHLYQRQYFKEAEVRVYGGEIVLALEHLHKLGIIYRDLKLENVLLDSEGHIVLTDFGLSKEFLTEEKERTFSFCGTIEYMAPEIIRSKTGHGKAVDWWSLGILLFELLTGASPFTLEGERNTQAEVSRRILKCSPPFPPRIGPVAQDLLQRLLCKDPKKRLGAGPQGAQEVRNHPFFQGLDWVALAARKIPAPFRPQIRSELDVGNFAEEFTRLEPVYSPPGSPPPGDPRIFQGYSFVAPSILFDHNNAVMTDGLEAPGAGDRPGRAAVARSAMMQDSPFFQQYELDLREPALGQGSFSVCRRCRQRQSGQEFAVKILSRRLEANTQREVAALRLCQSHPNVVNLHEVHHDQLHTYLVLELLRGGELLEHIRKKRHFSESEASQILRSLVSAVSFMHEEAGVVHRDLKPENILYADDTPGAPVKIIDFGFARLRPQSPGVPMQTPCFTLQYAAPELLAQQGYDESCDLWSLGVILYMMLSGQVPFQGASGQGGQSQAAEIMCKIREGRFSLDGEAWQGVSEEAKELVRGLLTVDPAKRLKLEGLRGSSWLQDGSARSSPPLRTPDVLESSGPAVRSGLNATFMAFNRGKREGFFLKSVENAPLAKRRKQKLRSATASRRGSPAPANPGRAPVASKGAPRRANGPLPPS
# [7] = biological target: LIM domain kinase 1 (Homo sapiens) (UniProt P53667); details: KINOMEscan 353-kinase binding panel, qPCR; LIMK1; at 10 µM; active compounds read low
# [8] = biological target: Serine/threonine-protein kinase Nek2 (Homo sapiens) (UniProt P51955); details: KINOMEscan 353-kinase binding panel, qPCR, at 10 µM, active compounds read low
# [9] = biological target: Proto-oncogene tyrosine-protein kinase Src (Homo sapiens) (UniProt P12931); details: KINOMEscan 353-kinase binding panel, qPCR, at 10 µM, active compounds read low
# [10] = biological target: Casein kinase I isoform gamma-2 (Homo sapiens) (UniProt P78368); details: KINOMEscan 353-kinase binding panel, qPCR; CSNK1G2; at 10 µM; active compounds read low
# Casein kinase I isoform gamma-2 (Homo sapiens), sequence (P78368 whole entry, looked up, canonical isoform): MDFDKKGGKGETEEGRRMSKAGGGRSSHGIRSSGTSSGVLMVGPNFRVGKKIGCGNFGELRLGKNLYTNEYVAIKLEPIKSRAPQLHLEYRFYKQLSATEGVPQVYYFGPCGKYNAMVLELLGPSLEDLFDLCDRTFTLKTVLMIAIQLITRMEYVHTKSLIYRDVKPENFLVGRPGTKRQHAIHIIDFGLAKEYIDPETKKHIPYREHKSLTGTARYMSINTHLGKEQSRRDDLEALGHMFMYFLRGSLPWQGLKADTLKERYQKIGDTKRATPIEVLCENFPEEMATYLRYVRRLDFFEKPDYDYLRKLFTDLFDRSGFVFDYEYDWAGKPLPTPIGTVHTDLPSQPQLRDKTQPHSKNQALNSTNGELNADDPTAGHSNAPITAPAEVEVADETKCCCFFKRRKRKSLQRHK
# ACVR2B = details: KINOMEscan 353-kinase binding panel, qPCR, at 10 µM, active compounds read low
# [11] = biological target: Protein-tyrosine kinase 2-beta (Homo sapiens) (UniProt Q14289); details: KINOMEscan 353-kinase binding panel, qPCR; PTK2B; at 10 µM; active compounds read low
# [12] = biological target: Testis-specific serine/threonine-protein kinase 1 (Homo sapiens) (UniProt Q9BXA7); details: KINOMEscan 353-kinase binding panel, qPCR; TSSK1; at 10 µM; active compounds read low
# [13] = biological target: Tyrosine-protein kinase BTK (Homo sapiens) (UniProt Q06187); details: KINOMEscan 353-kinase binding panel, qPCR, at 10 µM, active compounds read low
# [14] = biological target: Tyrosine-protein kinase JAK3 (Homo sapiens) (UniProt P52333); details: KINOMEscan 353-kinase binding panel, qPCR; JAK3(Kin.Dom.2); at 10 µM; active compounds read low
# [15] = biological target: Focal adhesion kinase 1 (Homo sapiens) (UniProt Q05397); details: KINOMEscan 353-kinase binding panel, qPCR; PTK2; at 10 µM; active compounds read low
# PIK3C2B = details: KINOMEscan 353-kinase binding panel, qPCR, at 10 µM, active compounds read low
# YSK1 = details: KINOMEscan 353-kinase binding panel, qPCR, at 10 µM, active compounds read low
# ULK2 = details: KINOMEscan 353-kinase binding panel, qPCR, at 10 µM, active compounds read low
# ACVR1B = details: KINOMEscan 353-kinase binding panel, qPCR, at 10 µM, active compounds read low
# [16] = biological target: Cyclin-dependent kinase 19 (Homo sapiens) (UniProt Q9BWU1); details: KINOMEscan 353-kinase binding panel, qPCR; CDK11; at 10 µM; active compounds read low
# Cyclin-dependent kinase 19 (Homo sapiens), sequence (Q9BWU1 whole entry, looked up): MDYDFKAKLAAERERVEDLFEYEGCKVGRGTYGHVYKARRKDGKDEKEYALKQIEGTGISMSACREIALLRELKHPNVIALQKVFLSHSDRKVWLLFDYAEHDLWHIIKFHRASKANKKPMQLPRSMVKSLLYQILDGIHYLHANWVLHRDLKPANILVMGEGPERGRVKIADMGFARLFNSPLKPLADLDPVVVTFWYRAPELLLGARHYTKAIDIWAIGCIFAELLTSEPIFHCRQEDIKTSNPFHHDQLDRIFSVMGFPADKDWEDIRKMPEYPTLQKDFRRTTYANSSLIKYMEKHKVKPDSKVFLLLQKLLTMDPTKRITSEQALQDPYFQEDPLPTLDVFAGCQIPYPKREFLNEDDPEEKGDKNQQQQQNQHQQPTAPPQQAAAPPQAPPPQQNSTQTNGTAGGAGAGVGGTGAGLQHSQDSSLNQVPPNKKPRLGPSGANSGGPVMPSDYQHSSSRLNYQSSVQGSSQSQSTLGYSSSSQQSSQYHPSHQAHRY
# [17] = biological target: High affinity nerve growth factor receptor (Homo sapiens) (UniProt P04629); details: KINOMEscan 353-kinase binding panel, qPCR; TRKA; at 10 µM; active compounds read low
# High affinity nerve growth factor receptor (Homo sapiens), sequence (P04629 whole entry, looked up): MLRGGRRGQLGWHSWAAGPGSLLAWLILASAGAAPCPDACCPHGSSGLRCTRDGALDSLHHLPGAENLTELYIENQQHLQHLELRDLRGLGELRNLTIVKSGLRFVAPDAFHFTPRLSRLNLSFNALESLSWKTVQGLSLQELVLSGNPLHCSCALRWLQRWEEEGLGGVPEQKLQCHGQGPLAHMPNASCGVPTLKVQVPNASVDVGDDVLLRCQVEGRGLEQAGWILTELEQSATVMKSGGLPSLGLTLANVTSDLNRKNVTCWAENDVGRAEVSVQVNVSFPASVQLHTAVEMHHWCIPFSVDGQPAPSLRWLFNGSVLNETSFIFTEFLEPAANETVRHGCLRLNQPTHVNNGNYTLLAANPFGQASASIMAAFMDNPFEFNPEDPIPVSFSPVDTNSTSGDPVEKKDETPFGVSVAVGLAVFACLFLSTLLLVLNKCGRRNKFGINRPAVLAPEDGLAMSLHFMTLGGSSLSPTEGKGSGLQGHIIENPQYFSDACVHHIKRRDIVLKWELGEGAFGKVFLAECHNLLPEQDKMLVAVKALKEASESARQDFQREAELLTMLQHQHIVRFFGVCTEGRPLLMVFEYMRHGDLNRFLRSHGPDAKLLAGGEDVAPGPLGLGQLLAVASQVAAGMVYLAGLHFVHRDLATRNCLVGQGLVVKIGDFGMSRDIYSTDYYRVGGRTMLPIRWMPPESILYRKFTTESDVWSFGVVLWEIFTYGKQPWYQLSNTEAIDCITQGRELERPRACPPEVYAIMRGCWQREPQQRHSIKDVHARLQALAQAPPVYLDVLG
# [18] = biological target: Leukocyte tyrosine kinase receptor (Homo sapiens) (UniProt P29376); details: KINOMEscan 353-kinase binding panel, qPCR; LTK; at 10 µM; active compounds read low
# Leukocyte tyrosine kinase receptor (Homo sapiens), sequence (P29376 whole entry, looked up): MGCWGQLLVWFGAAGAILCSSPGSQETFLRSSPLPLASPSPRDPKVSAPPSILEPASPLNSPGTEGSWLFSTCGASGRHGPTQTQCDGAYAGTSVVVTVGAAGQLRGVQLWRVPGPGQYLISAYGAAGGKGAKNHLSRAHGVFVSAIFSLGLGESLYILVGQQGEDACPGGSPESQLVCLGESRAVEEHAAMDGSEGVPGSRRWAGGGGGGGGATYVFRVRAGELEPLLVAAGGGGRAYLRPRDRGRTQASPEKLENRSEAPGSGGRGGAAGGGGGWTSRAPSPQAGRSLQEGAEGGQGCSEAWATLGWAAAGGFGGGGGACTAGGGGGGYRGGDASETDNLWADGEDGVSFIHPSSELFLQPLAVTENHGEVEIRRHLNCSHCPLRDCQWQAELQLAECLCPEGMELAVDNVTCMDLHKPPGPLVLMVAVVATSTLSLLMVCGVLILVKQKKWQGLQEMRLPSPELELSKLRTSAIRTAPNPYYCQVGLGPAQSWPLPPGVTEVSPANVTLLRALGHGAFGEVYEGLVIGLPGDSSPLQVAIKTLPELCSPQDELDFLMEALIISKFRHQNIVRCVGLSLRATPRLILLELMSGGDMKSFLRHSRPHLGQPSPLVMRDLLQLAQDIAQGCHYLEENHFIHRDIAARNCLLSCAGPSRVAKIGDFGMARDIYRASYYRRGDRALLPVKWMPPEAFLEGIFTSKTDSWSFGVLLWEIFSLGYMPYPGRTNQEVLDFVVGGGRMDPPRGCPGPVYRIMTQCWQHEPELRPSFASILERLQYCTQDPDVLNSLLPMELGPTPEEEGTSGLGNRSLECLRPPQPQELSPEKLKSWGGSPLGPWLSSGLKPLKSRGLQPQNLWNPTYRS
# MST1 = details: KINOMEscan 353-kinase binding panel, qPCR, at 10 µM, active compounds read low
# [19] = biological target: Receptor tyrosine-protein kinase erbB-4 (Homo sapiens) (UniProt Q15303); details: KINOMEscan 353-kinase binding panel, qPCR; ERBB4; at 10 µM; active compounds read low
# [20] = biological target: Serine/threonine-protein kinase BRSK1 (Homo sapiens) (UniProt Q8TDC3); details: KINOMEscan 353-kinase binding panel, qPCR, at 10 µM, active compounds read low
# PIK3CB = details: KINOMEscan 353-kinase binding panel, qPCR, at 10 µM, active compounds read low
smiles,measurement,setting,value
Cc1cc2nc(NCCCO)n(CC(=O)c3cc(C(C)(C)C)c(O)c(C(C)(C)C)c3)c2cc1C,percent of control binding,MYLK,80% (inactive)
same,percent of control binding,[1],89% (inactive)
same,percent of control binding,[2],100% (inactive)
same,percent of control binding,PRKR,98% (inactive)
same,percent of control binding,[3],90% (inactive)
same,percent of control binding,TLK1,30%
same,percent of control binding,ULK1,100% (inactive)
same,percent of control binding,[4],100% (inactive)
same,percent of control binding,LATS1,94% (inactive)
same,percent of control binding,[5],88% (inactive)
same,percent of control binding,[6]; RPS6KA4(Kin.Dom.1),100% (inactive)
same,percent of control binding,[6]; RPS6KA4(Kin.Dom.2),100% (inactive)
same,percent of control binding,[7],95% (inactive)
same,percent of control binding,[8],84% (inactive)
same,percent of control binding,[9],100% (inactive)
same,percent of control binding,[10],100% (inactive)
same,percent of control binding,ACVR2B,100% (inactive)
same,percent of control binding,[11],100% (inactive)
same,percent of control binding,[12],100% (inactive)
same,percent of control binding,[13],85% (inactive)
same,percent of control binding,[14],100% (inactive)
same,percent of control binding,[15],100% (inactive)
same,percent of control binding,PIK3C2B,90% (inactive)
same,percent of control binding,YSK1,84% (inactive)
same,percent of control binding,ULK2,84% (inactive)
same,percent of control binding,ACVR1B,84% (inactive)
same,percent of control binding,[16],75% (inactive)
same,percent of control binding,[17],100% (inactive)
same,percent of control binding,[18],92% (inactive)
same,percent of control binding,MST1,90% (inactive)
same,percent of control binding,[19],100% (inactive)
same,percent of control binding,[20],100% (inactive)
same,percent of control binding,PIK3CB,79% (inactive)
